These results are taken from patent publication US10221138B2, “Biaryl derivatives as GPR120 agonists” (LG CHEM, LTD., priority 2013, dated 2019).

Each structure is given as a SMILES string. Bounds are passed on as bounds.

The EC50 is the concentration that produces a half-maximal response.

The test deals with T1, hGPR120 (Homo sapiens, UniProt Q5NUL3).
T1 construct: expressed in transfected cells; host or cells: CHO-K1
T1 sequence (Q5NUL3 1-361): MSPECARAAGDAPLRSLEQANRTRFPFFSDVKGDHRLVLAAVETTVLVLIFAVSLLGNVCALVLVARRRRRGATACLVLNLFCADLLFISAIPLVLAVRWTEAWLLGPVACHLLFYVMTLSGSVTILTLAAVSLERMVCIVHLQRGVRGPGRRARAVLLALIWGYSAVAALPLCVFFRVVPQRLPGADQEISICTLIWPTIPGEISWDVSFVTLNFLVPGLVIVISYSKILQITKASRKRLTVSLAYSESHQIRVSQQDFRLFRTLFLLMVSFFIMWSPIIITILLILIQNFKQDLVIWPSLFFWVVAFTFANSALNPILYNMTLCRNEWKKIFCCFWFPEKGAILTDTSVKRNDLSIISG
Put plainly: Measurement of activity of GPR120 agonist (cell-based calcium fluorescence assay). Conditions: CHO-K1 cells expressing Ga16 and hGPR120, Calcium 5 dye fluorescence; activity class; read-out: EC50. Summed up: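 CHO-K1 cells co-expressing Gα16 and hGPR120, plated 18 h, loaded with Calcium 5 dye for 1 h at 37 °C, then given serially diluted agonists (final 0.5% DMSO). Fluorescence increase expressed as relative % of the 1% DMSO-only signal.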
For the compound `O=C(O)CCCSc1ccc(-c2cccnc2OC2CCC2)cc1` [Example 143, 4-[4-(2-cyclobutoxy-pyridin-3-yl)-phenylsulfanyl]-butyric acid], the EC50 was 0.2 to 2 µM.

As for `O=C(O)CCCSc1c(F)cc(-c2cccnc2OC2CCC2)cc1F` [Example 144, 4-[4-(2-cyclobutoxy-pyridin-3-yl)-2,6-difluoro-phenylsulfanyl]-butyric acid], the EC50 was below 0.2 µM.

`O=C(O)CCCSc1c(F)cc(-c2cccnc2OC2CCCC2)cc1F` [Example 145, 4-[4-(2-cyclopentyloxy-pyridin-3-yl)-2,6-difluoro-phenylsulfanyl]-butyric acid]: the EC50 was below 0.2 µM. In the case of `CC(C)Sc1ncccc1-c1cc(F)c(SCCCC(=O)O)c(F)c1` [Example 146, 4-[2,6-difluoro-4-(2-isopropylsulfanyl-pyridin-3-yl)-phenylsulfanyl]-butyric acid] it was below 0.2 µM; in that of `O=C(O)CCCSc1c(F)cc(-c2cccnc2SC2CCCC2)cc1F` [Example 147, 4-[4-(2-cyclopentylsulfanyl-pyridin-3-yl)-2,6-difluoro-phenylsulfanyl]-butyric acid], below 0.2 µM. As to `CC(C)Sc1ncccc1-c1ccc(SCCCC(=O)O)cc1` [Example 148, 4-[4-(2-isopropylsulfanyl-pyridin-3-yl)-phenylsulfanyl]-butyric acid], the EC50 is below 0.2 µM.

For `O=C(O)CCCSc1ccc(-c2cccnc2SC2CCCC2)cc1` [Example 149, 4-[4-(2-cyclopentylsulfanyl-pyridin-3-yl)-phenylsulfanyl]-butyric acid], the EC50 is below 0.2 µM.

In the case of `O=C(O)CCCSc1ccc(-c2cccnc2SC2CCC2)cc1F` [Example 152, 4-[4-(2-cyclobutylsulfanyl-pyridin-3-yl)-2-fluoro-phenylsulfanyl]-butyric acid], the EC50 is below 0.2 µM. With `O=C(O)CCCSc1ccc(-c2cccnc2SC2CCC2)cc1` [Example 153, 4-[4-(2-cyclobutylsulfanyl-pyridin-3-yl)-phenylsulfanyl]-butyric acid], the EC50 was below 0.2 µM. Consider `O=C(O)CCCSc1c(F)cc(-c2cccc(OC3CCC3)n2)cc1F` [Example 154, 4-[4-(6-cyclobutoxy-pyridin-2-yl)-2,6-difluoro-phenylsulfanyl]-butyric acid], for which the EC50 is below 0.2 µM. Then `O=C(O)CCCSc1c(F)cc(-c2cccc(OC3CCCC3)n2)cc1F` [Example 155, 4-[4-(6-cyclopentyloxy-pyridin-2-yl)-2,6-difluoro-phenylsulfanyl]-bytyric acid], with below 0.2 µM; and `O=C(O)CCCSc1ccc(-c2cccc(SC3CCC3)n2)cc1` [Example 156, 4-[4-(6-cyclobutylsulfanyl-pyridin-2-yl)-phenylsulfanyl]-butyric acid], with below 0.2 µM.

Take `O=C(O)CCCSc1c(F)cc(-c2cccc(SC3CCC3)n2)cc1F` [Example 158, 4-[4-(6-cyclobutylsulfanyl-pyridin-2-yl)-2,6-difluoro-phenylsulfanyl]-butyric acid]: the EC50 is below 0.2 µM.

Turning to `O=C(O)CCCSc1c(F)cc(-c2cccc(SC3CCCC3)n2)cc1F` [Example 159, 4-[4-(6-cyclopentylsulfanyl-pyridin-2-yl)-2,6-difluoro-phenylsulfanyl]-butyric acid], the EC50 is below 0.2 µM.

For `O=C(O)CCCSc1ccc(-c2ccccc2NC2CCCC2)cc1F` [Example 160, 4-(2′-cyclopentylamino-3-fluoro-biphenyl-4-ylsulfanyl)-butyric acid], the EC50 is below 0.2 µM.

For the compound `O=C(O)CCCSc1c(F)cc(-c2ccccc2NC2CCCC2)cc1F` [Example 161, 4-(2′-cyclopentylamino-3,5-difluoro-biphenyl-4-ylsulfanyl)-butyric acid], the EC50 is below 0.2 µM.

As for `O=C(O)CCCSc1c(F)cc(-c2ccccc2NCC2CC2)cc1F` [Example 162, 4-[2′-(cyclopropylmethyl-amino)-3,5-difluoro-biphenyl-4-ylsulfanyl]-butyric acid], the EC50 was below 0.2 µM. Consider `CC(C)Sc1ncccc1-c1ccc(SCCCC(=O)O)c(F)c1` [Example 163, 4-[2-fluoro-4-(2-isopropylsulfanyl-pyridin-3-yl)-phenylsulfanyl]butyric acid], for which the EC50 was below 0.2 µM. In the case of `O=C(O)CCCSc1ccc(-c2cccnc2SC2CCCC2)cc1F` [Example 164, 4-[4-(2-cyclopentylsulfanyl-pyridin-3-yl)-2-fluoro-phenylsulfanyl]-butyric acid], the EC50 was below 0.2 µM. Regarding `CC(C)Nc1ccccc1-c1cc(F)c(SCCCC(=O)O)c(F)c1` [Example 165, 4-(3,5-difluoro-2′-isopropylamino-biphenyl-4-ylsulfanyl)-butyric acid], the EC50 is below 0.2 µM.

Consider `CCCNc1ccccc1-c1cc(F)c(SCCCC(=O)O)c(F)c1` [Example 166, 4-(3,5-difluoro-2′-propylamino-biphenyl-4-ylsulfanyl)-butyric acid], for which the EC50 is below 0.2 µM. Take `CCCSc1ncccc1-c1cc(F)c(SCCCC(=O)O)c(F)c1` [Example 168, 4-[2,6-difluoro-4-(2-propylsulfanyl-pyridin-3yl)-phenylsulfanyl]-butyric acid]: the EC50 is below 0.2 µM.

Turning to `O=C(O)CCCSc1ccc(-c2cccc(SC3CCC3)n2)cc1F` [Example 169, 4-[4-(6-cyclobutylsulfanyl-pyridin-2-yl)-2-fluoro-phenylsulfanyl]-butyric acid], the EC50 was below 0.2 µM. In the case of `O=C(O)CCCSc1ccc(-c2cccnc2NC2CCCC2)cc1F` [Example 170, 4-[4-(2-cyclopentylamino-pyridin-3-yl)-2-fluoro-phenylsulfanyl]-butyric acid] it was below 0.2 µM; in that of `CC(C)Oc1ncccc1-c1ccc(SCCCC(=O)O)c(F)c1` [Example 171, 4-[2-fluoro-4-(2-isopropoxy-pyridin-3-yl)-phenylsulfanyl]-butyric acid], below 0.2 µM; in that of `O=C(O)CCCSc1ccc(-c2cccnc2OC2CCC2)cc1F` [Example 172, 4-[4-(2-cyclobutoxy-pyridin-3-yl)-2-fluoro-phenylsulfanyl]-butyric acid], below 0.2 µM. Then `O=C(O)CCCSc1ccc(-c2cccnc2N2CCCC2)cc1F` [Example 173, 4-[2-fluoro-4-(2-pyrrolidin-1-yl-pyridin-3-yl)-phenylsulfanyl]-butyric acid], with 0.2 to 2 µM; and `CC(C)Nc1ncccc1-c1ccc(SCCCC(=O)O)c(F)c1` [Example 174, 4-[2-fluoro-4-(2-isopropylamino-pyridin-3-yl)-phenylsulfanyl]-bytyric acid], with 0.2 to 2 µM. `O=C(O)CCCSc1ccc(-c2cc(F)ccc2NC2CCCC2)cc1F` [Example 175, 4-(2′-cyclopentylamino-3,5′-difluoro-biphenyl-4-ylsulfanyl)-butyric acid]: the EC50 was below 0.2 µM. As to `O=C(O)CCCSc1ccc(-c2cc(F)ccc2NC2CCCC2)cc1` [Example 176, 4-(2′-cyclopentylamino-5′-fluoro-biphenyl-4-ylsulfanyl)-butyric acid], the EC50 was below 0.2 µM.

For `Cc1ccc(OC2CCCC2)c(-c2ccc(SCCCC(=O)O)cc2)c1` [Example 177, 4-(2′-cyclopentyloxy-5′-methyl-biphenyl-4-ylsulfanyl)-butyric acid], the EC50 was in the range of 0.2 to 2 µM.

In the case of `O=C(O)CCCSc1ccc(-c2cc(F)ccc2OC2CCCC2)cc1` [Example 179, 4-(2′-cyclopentyloxy-5′-fluoro-biphenyl-4-ylsulfanyl)-butyric acid], the EC50 lay in the range of 0.2 to 2 µM. As to `O=C(O)CCCSc1ccc(-c2cc(F)ccc2OC2CCCC2)cc1F` [Example 180, 4-(2′-cyclopentyloxy-3,5′-difluoro-biphenyl-4-ylsulfanyl)-butyric acid], the EC50 lay in the range of 0.2 to 2 µM. Then `Cc1cnc(OC2CCCC2)c(-c2ccc(SCCCC(=O)O)cc2)c1` [Example 181, 4-[4-(2-cyclopentyloxy-5-methyl-pyridin-3-yl)-phenylsulfanyl]-butyric acid], with 0.2 to 2 µM; and `COc1ccc(-c2ccc(SCCCC(=O)O)c(F)c2)c(OC2CCCC2)c1` [Example 183, 4-(2′-cyclopentyloxy-3-fluoro-4′-methoxy-biphenyl-4-ylsulfanyl)-butyric acid], with 0.2 to 2 µM. As to `COc1ccc(-c2cc(F)c(SCCCC(=O)O)c(F)c2)c(OC2CCCC2)c1` [Example 184, 4-(2′-cyclopentyloxy-3,5-difluoro-4′-methoxy-biphenyl-4-ylsulfanyl)-butyric acid], the EC50 fell in the range of 0.2 to 2 µM. In the case of `COc1ccc(-c2ccc(SCCCC(=O)O)c(F)c2)c(OC(C)C)c1` [Example 185, 4-(3-fluoro-2′-isopropoxy-4′-methoxy-biphenyl-4-ylsulfanyl)-butyric acid], the EC50 was below 0.2 µM.

With `Cc1cnc(OC2CCCC2)c(-c2ccc(SCCCC(=O)O)c(F)c2)c1` [Example 186, 4-[4-(2-cyclopentyloxy-5-methyl-pyridin-3-yl)-2-fluoro-phenylsulfanyl]-butyric acid], the EC50 is below 0.2 µM. Consider `Cc1cnc(OC(C)C)c(-c2ccc(SCCCC(=O)O)c(F)c2)c1` [Example 187, 4-[2-fluoro-4-(2-isopropoxy-5-methyl-pyridin-3-yl)-phenylsulfanyl]-butyric acid], for which the EC50 is below 0.2 µM. In the case of `CC(C)Oc1ccc(F)cc1-c1ccc(SCCCC(=O)O)c(F)c1` [Example 188, 4-(3,5′-difluoro-2′-isopropoxy-biphenyl-4-ylsulfanyl)-butyric acid] it was below 0.2 µM.
